Laboratory results as given in patent publication US20240083944A1 (priority 2021, published 2024).
Starred links: 1 amine or outer side, 2 acyl side, 3 side chain; linkers in the order of their positions; H or OH if unused. Positions of bridges follow the written chain, without caps; N, C: chain ends. Non-standard residues stand in square brackets, D forms with d. Chains are numbered I, II in the order given. X3 = O=C(CCCc1ccc(I)cc1)NCCOCCOCCOCCOCCOCCOCCOCCOCCOCCOCCn1cc(CCC(=O)NC(COCCC(=O)NCCOCCOCCOCCOCCOCCOCCOCCOCCOCCOCCn2cc(CCC(=O)[*:1])nn2)(COCCC(=O)NCCOCCOCCOCCOCCOCCOCCOCCOCCOCCOCCn2cc(CCC(=O)[*:2])nn2)COCCC(=O)NCCOCCOCCOCCOCCOCCOCCOCCOCCOCCOCCn2cc(CCC(=O)[*:3])nn2)nn1; X2 = O=C(CCOCCN(CCOCCC(=O)NCCOCCOCCOCCOCCOCCOCCOCCOCCOCCOCCn1cc(CCC(=O)[*:2])nn1)CCOCCC(=O)NCCOCCOCCOCCOCCOCCOCCOCCOCCOCCOCCn1cc(CCC(=O)[*:3])nn1)NCCOCCOCCOCCOCCOCCOCCOCCOCCOCCOCCn1cc(CCC(=O)[*:1])nn1; X1 = C(c1nc(C[*:2])nc(C[*:3])n1)[*:1]; hArg = N=C(N)NCCCC[C@H](N)C(=O)O; tBuAla = CC(C)(C)C[C@H](N)C(=O)O; Agb = N=C(N)NCC[C@H](N)C(=O)O

Key:
[1] = tested on: SARS-CoV-2; test: Mouse Efficacy Model; type: in vivo, male K18-hACE2 mice; conditions: 100 mg/kg (tid) for three days, mice infected with SARS-CoV-2
[2] = tested on: SARS-CoV-2 pseudotyped HIV-1 virions, B.1.1.7 (Alpha)
[3] = Pharmacokinetic analysis in mouse; type: in vivo; conditions: 3 mg/kg; for half-life: in vivo
From the text: In one embodiment, the multimeric binding complex additionally comprises a half-life extending moiety. References herein to half-life extending moieities refer to any moiety capable of extending the half-life of the resultant multimeric binding complex in vivo when compared to the half-life of said multimeric binding complex in the absence of said half-life extending moiety.

Row | Substance | total viral RNA in nasal turbinate ([1]; FIG. 4 (A)) | subgenomic RNA in nasal turbinate ([1]; FIG. 4 (B)) | total viral RNA in lung ([1]; FIG. 4 (C)) | subgenomic RNA in lung ([1]; FIG. 4 (D)) | IC50 [2] [nM] | half-life [3] [h] | half-life improvement ([3]; BCY19602 versus BCY18208 (no half-life extending moiety)) [fold]
1 | I: Ac-CPYVAG[Agb][dA]TCL[tBuAla]CK-NH2 / II: Ac-CPYVAG[Agb][dA]TCL[tBuAla]CK-NH2 / III: Ac-CPYVAG[Agb][dA]TCL[tBuAla]CK-NH2 (linker I:1-I:10-I:13, II:1-II:10-II:13, III:1-III:10-III:13 via X1; linker I:14-II:14-III:14 via X2) [BCY17021] | reduction of total viral RNA in nasal turbinate | reduction of subgenomic RNA in nasal turbinate | reduction of total viral RNA in lung | reduction of subgenomic RNA in lung | 0.3 |  | 
2 | I: Ac-CPYVAG[hArg][dA]TCL[tBuAla]CK-NH2 / II: Ac-CPYVAG[hArg][dA]TCL[tBuAla]CK-NH2 / III: Ac-CPYVAG[hArg][dA]TCL[tBuAla]CK-NH2 (linker I:1-I:10-I:13, II:1-II:10-II:13, III:1-III:10-III:13 via X1; linker I:14-II:14-III:14 via X2) [BCY18208] |  |  |  |  |  | 0.3 | 
3 | I: Ac-CPYVAG[hArg][dA]TCL[tBuAla]CK-NH2 / II: Ac-CPYVAG[hArg][dA]TCL[tBuAla]CK-NH2 / III: Ac-CPYVAG[hArg][dA]TCL[tBuAla]CK-NH2 (linker I:1-I:10-I:13, II:1-II:10-II:13, III:1-III:10-III:13 via X1; linker I:14-II:14-III:14 via X3) [BCY19602] |  |  |  |  |  | 3.1 | 10
